Among the data in ChEMBL document CHEMBL6103641, “Palladium-Catalyzed Late-Stage Functionalization of Natural Antitumor Drug: Synthesis and Bioactivity of 5-Aryl Camptothecins” (J Nat Prod, 2025) are IC50 values, retold here.

Holding throughout (format): functional, cell-based
One test has as its system MCF7. The test is described as follows: Cytotoxicity against human MCF7 cells assessed as inhibition of cell viability incubated for 24 hrs by MTT assay. To be noted: MCF7, 24 h.
The subject of the next test is A549. The test is described as follows: Cytotoxicity against human A549 cells assessed as inhibition of cell viability incubated for 24 hrs by MTT assay. Conditions: A549, 24 h.
In the next test the test system is HCT-116. In words: Cytotoxicity against human HCT-116 cells assessed as inhibition of cell viability incubated for 24 hrs by MTT assay. To be noted: HCT-116, 24 h.

In the case of `CC[C@@]1(O)C(=O)OCc2c1cc1n(c2=O)[C@@H](c2cccc(F)c2C)c2cc3ccccc3nc2-1`, the values for the IC50 with MCF7, with A549 and in the test with HCT-116 were more than 10000 nM, 10 nM and 900 nM, respectively.
The corresponding values for `CC[C@@]1(O)C(=O)OCc2c1cc1n(c2=O)[C@@H](c2ccc3c(c2)OCO3)c2cc3ccccc3nc2-1` are more than 10000 nM, 500 nM and more than 10000 nM.
Taken in the same sequence, the figures for `CC[C@@]1(O)C(=O)OCc2c1cc1n(c2=O)[C@H](c2ccc(C(C)(C)C)cc2)c2cc3ccccc3nc2-1` were more than 10000 nM, more than 10000 nM and 200 nM.
Take `CC[C@@]1(O)C(=O)OCc2c1cc1n(c2=O)[C@H](c2ccc3c(c2)OCCO3)c2cc3ccccc3nc2-1`: the figures for the IC50 with MCF7, in the test with A549 and in the test on HCT-116 were more than 10000 nM, 100 nM and 80 nM, respectively.
`CC[C@@]1(O)C(=O)OCc2c1cc1n(c2=O)[C@H](c2cccc(F)c2C)c2cc3ccccc3nc2-1`: the IC50 with MCF7 was more than 10000 nM; in the test with A549, 10 nM; in the test on HCT-116 it was 10400 nM.
In the case of `CC[C@@]1(O)C(=O)OCc2c1cc1n(c2=O)[C@@H](c2cc(C)cc(C)c2)c2cc3ccccc3nc2-1`, the values for the IC50 in the test with MCF7, in the test on A549 and in the test with HCT-116 were 160 nM, more than 10000 nM and more than 10000 nM, respectively.
Consider `CC[C@@]1(O)C(=O)OCc2c1cc1n(c2=O)[C@H](c2c(OC)cccc2OC)c2cc3ccccc3nc2-1`, for which the IC50 in the test on MCF7 was 400 nM; in the test on A549, more than 10000 nM; in the test on HCT-116, more than 10000 nM.
As for `CC[C@@]1(O)C(=O)OCc2c1cc1n(c2=O)[C@@H](c2ccccc2C)c2cc3ccccc3nc2-1`, the IC50 with MCF7 is more than 10000 nM; in the test on A549 it was more than 10000 nM; with HCT-116, 200 nM.
As to `CC[C@@]1(O)C(=O)OCc2c1cc1n(c2=O)[C@@H](c2c(C)cccc2C)c2cc3ccccc3nc2-1`, the IC50 in the test on MCF7 is more than 10000 nM; with A549, more than 10000 nM; with HCT-116 it was 1100 nM.
With `CC[C@@]1(O)C(=O)OCc2c1cc1n(c2=O)[C@H](c2ccc(-c3cccc4ccccc34)cc2)c2cc3ccccc3nc2-1`, the IC50 in the test with MCF7 is 1100 nM; with A549, more than 10000 nM; with HCT-116 it was 700 nM.
As to `CCOC(=O)/C=C/C[C@H]1c2cc3ccccc3nc2-c2cc3c(c(=O)n21)COC(=O)[C@]3(O)CC`, the values for the IC50 in the test on MCF7, with A549 and with HCT-116 were more than 10000 nM, 10 nM and 400 nM, respectively.
On to `CCOC(=O)/C=C/C[C@@H]1c2cc3ccccc3nc2-c2cc3c(c(=O)n21)COC(=O)[C@]3(O)CC`, for which the values for the IC50 in the test on MCF7, with A549 and with HCT-116 were 400 nM, 10 nM and 300 nM, respectively.
For the compound `CC[C@@]1(O)C(=O)OCc2c1cc1n(c2=O)[C@@H](c2ccccc2F)c2cc3ccccc3nc2-1`, the 50% inhibitory concentration (IC50) was more than 10000 nM with MCF7, 40 nM in the test on A549 and more than 10000 nM with HCT-116.
In the case of `CC[C@@]1(O)C(=O)OCc2c1cc1n(c2=O)[C@H](c2cccc(OC)c2)c2cc3ccccc3nc2-1`, the figures for the IC50 in the test on MCF7, in the test on A549 and with HCT-116 were more than 10000 nM, 200 nM and more than 10000 nM, respectively.
For the compound `C=CC[C@H]1c2cc3ccccc3nc2-c2cc3c(c(=O)n21)COC(=O)[C@]3(O)CC`, the IC50 with MCF7 is more than 10000 nM; with A549 it was more than 10000 nM; in the test on HCT-116, 400 nM.
In the case of `CCOc1ccc([C@H]2c3cc4ccccc4nc3-c3cc4c(c(=O)n32)COC(=O)[C@]4(O)CC)cc1`, the concentration for half-maximal inhibition (IC50) in the test on MCF7 is more than 10000 nM; in the test with A549, 100 nM; with HCT-116, more than 10000 nM.
`CC[C@@]1(O)C(=O)OCc2c1cc1n(c2=O)[C@@H](c2ccc(-c3cccc4ccccc34)cc2)c2cc3ccccc3nc2-1`: the IC50 with MCF7, in the test with A549 and in the test on HCT-116 was more than 10000 nM in each case.
With `CC[C@@]1(O)C(=O)OCc2c1cc1n(c2=O)[C@H](c2ccc3c(c2)OCO3)c2cc3ccccc3nc2-1`, the IC50 in the test with MCF7 is more than 10000 nM; in the test with A549, 100 nM; in the test on HCT-116, 50 nM.
The corresponding values for `CC[C@@]1(O)C(=O)OCc2c1cc1n(c2=O)[C@@H](c2cccc(-c3ccccc3)c2)c2cc3ccccc3nc2-1` are more than 10000 nM, 8900 nM and more than 10000 nM.
Turning to `CC[C@@]1(O)C(=O)OCc2c1cc1n(c2=O)Cc2cc3ccccc3nc2-1` [CAMPTOTHECIN], the results for the IC50 in the test on MCF7, in the test on A549 and with HCT-116 were 900 nM, 300 nM and 300 nM, respectively.
For the compound `CC[C@@]1(O)C(=O)OCc2c1cc1n(c2=O)[C@H](c2cccc(C(F)(F)F)c2)c2cc3ccccc3nc2-1`, the IC50 was 70 nM with MCF7, more than 10000 nM in the test on A549 and 1200 nM in the test on HCT-116.
Taken in the same sequence, the figures for `CC[C@@]1(O)C(=O)OCc2c1cc1n(c2=O)[C@H](c2ccccc2C(C)C)c2cc3ccccc3nc2-1` were 9200 nM, 10 nM and 100 nM.
As for `C=Cc1ccc([C@H]2c3cc4ccccc4nc3-c3cc4c(c(=O)n32)COC(=O)[C@]4(O)CC)cc1`, the results for the IC50 with MCF7, with A549 and with HCT-116 were 600 nM, more than 10000 nM and 800 nM, respectively.
The corresponding values for `CC[C@@]1(O)C(=O)OCc2c1cc1n(c2=O)[C@H](c2ccccc2C)c2cc3ccccc3nc2-1` are more than 10000 nM, more than 10000 nM and 200 nM.
The corresponding values for `CC[C@@]1(O)C(=O)OCc2c1cc1n(c2=O)[C@@H](c2ccccc2Cl)c2cc3ccccc3nc2-1` are 100 nM, more than 10000 nM and more than 10000 nM.
Consider `CC[C@@]1(O)C(=O)OCc2c1cc1n(c2=O)[C@H](CC=C(C)C)c2cc3ccccc3nc2-1`, for which the IC50 came out at 100 nM in the test with MCF7, 1200 nM with A549 and 600 nM in the test on HCT-116.
Taken in the same sequence, the figures for `CC[C@@]1(O)C(=O)OCc2c1cc1n(c2=O)[C@H](c2ccc3ccccc3c2)c2cc3ccccc3nc2-1` were more than 10000 nM, 700 nM and more than 10000 nM.
Consider `CCc1ccc(-c2ccc([C@@H]3c4cc5ccccc5nc4-c4cc5c(c(=O)n43)COC(=O)[C@]5(O)CC)cc2)cc1`, for which the IC50 was more than 10000 nM in the test with MCF7, 800 nM in the test with A549 and 200 nM with HCT-116.
Taken in the same sequence, the figures for `CC[C@@]1(O)C(=O)OCc2c1cc1n(c2=O)[C@@H](CC=C(C)C)c2cc3ccccc3nc2-1` were 60 nM, 20 nM and 500 nM.
The corresponding values for `CC[C@@]1(O)C(=O)OCc2c1cc1n(c2=O)[C@H](c2c(C)cccc2C)c2cc3ccccc3nc2-1` are more than 10000 nM, more than 10000 nM and 300 nM.
Turning to `C=CC[C@@H]1c2cc3ccccc3nc2-c2cc3c(c(=O)n21)COC(=O)[C@]3(O)CC`, the results for the IC50 in the test with MCF7, in the test on A549 and in the test on HCT-116 were 900 nM, more than 10000 nM and 300 nM, respectively.
`CC[C@@]1(O)C(=O)OCc2c1cc1n(c2=O)[C@H](c2cccc(CBr)c2)c2cc3ccccc3nc2-1`: the IC50 with MCF7 is more than 10000 nM; with A549, 1100 nM; in the test with HCT-116 it was 9300 nM.
The corresponding values for `CC[C@@]1(O)C(=O)OCc2c1cc1n(c2=O)[C@@H](c2ccc(Cl)cc2)c2cc3ccccc3nc2-1` are more than 10000 nM, more than 10000 nM and more than 10000 nM.
The corresponding values for `C=Cc1ccc([C@@H]2c3cc4ccccc4nc3-c3cc4c(c(=O)n32)COC(=O)[C@]4(O)CC)cc1` are 100 nM, more than 10000 nM and 900 nM.
As to `CC[C@@]1(O)C(=O)OCc2c1cc1n(c2=O)[C@H](c2ccc(F)cc2)c2cc3ccccc3nc2-1`, the IC50 with MCF7 was 100 nM; with A549, 400 nM; with HCT-116 it was more than 10000 nM.
The corresponding values for `CC[C@@]1(O)C(=O)OCc2c1cc1n(c2=O)[C@H](c2ccccc2Cl)c2cc3ccccc3nc2-1` are 600 nM, more than 10000 nM and more than 10000 nM.
Turning to `CC[C@@]1(O)C(=O)OCc2c1cc1n(c2=O)[C@@H](c2ccc(F)cc2)c2cc3ccccc3nc2-1`, the IC50 is 100 nM with MCF7, more than 10000 nM in the test with A549 and more than 10000 nM in the test with HCT-116.
For `CC[C@@]1(O)C(=O)OCc2c1cc1n(c2=O)[C@H](c2cccc(-c3ccccc3)c2)c2cc3ccccc3nc2-1`, the results for the half-inhibitory concentration (IC50) with MCF7, in the test with A549 and with HCT-116 were more than 10000 nM, 900 nM and more than 10000 nM, respectively.
As for `CCOc1ccc([C@@H]2c3cc4ccccc4nc3-c3cc4c(c(=O)n32)COC(=O)[C@]4(O)CC)cc1`, the figures for the concentration for half-maximal inhibition (IC50) in the test on MCF7, in the test on A549 and in the test with HCT-116 were more than 10000 nM, 100 nM and more than 10000 nM, respectively.
Consider `CC[C@@]1(O)C(=O)OCc2c1cc1n(c2=O)[C@H](c2ccccc2F)c2cc3ccccc3nc2-1`, for which the IC50 in the test on MCF7 is more than 10000 nM; in the test with A549 it was 10 nM; in the test with HCT-116 it was 500 nM.
On to `CC[C@@]1(O)C(=O)OCc2c1cc1n(c2=O)[C@H](c2ccc(Cl)cc2)c2cc3ccccc3nc2-1`, for which the IC50 was more than 10000 nM with MCF7, more than 10000 nM with A549 and 600 nM in the test with HCT-116.
For the compound `CC[C@@]1(O)C(=O)OCc2c1cc1n(c2=O)[C@@H](c2cccc(OC)c2)c2cc3ccccc3nc2-1`, the results for the IC50 with MCF7, in the test with A549 and with HCT-116 were more than 10000 nM, 1100 nM and more than 10000 nM, respectively.
Turning to `CC[C@@]1(O)C(=O)OCc2c1cc1n(c2=O)[C@@H](c2cccc(C(F)(F)F)c2)c2cc3ccccc3nc2-1`, the IC50 in the test with MCF7, with A549 and with HCT-116 was more than 10000 nM throughout.
As to `CC[C@@]1(O)C(=O)OCc2c1cc1n(c2=O)[C@@H](c2ccccc2C(C)C)c2cc3ccccc3nc2-1`, the IC50 with MCF7 is more than 10000 nM; in the test on A549, 10 nM; with HCT-116, 600 nM.
